# Test results: patent US20040198810A1 (H. Lundbeck A/S, priority 2001, published 2004)
# Experiments:
# Type in all cases: in vivo
# [1] = fixed dose studies (MADRS rating scale and Clinical Global Impression); settings: escitalopram in a dose of 10 mg
# [2] = test system: Chronic Mild Stress model; test: Chronic Mild Stress model; settings: animal models
# Description: (§1) This has i.a. been found in the Chronic Mild Stress model (Willner P., Psychopharmachology 1997, 134, 319-329).
# [3] = test system: primary care patients with major depression disorder; test: 8-week, double-blind, randomised, placebo-controlled, flexible-dose clinical study; settings: Week 1 (p=0.023) to Week 4 (p=0.002), observed cases
# Description: as §1
# A total of 471 patients were randomised into the study. The all-patient-treated set comprised 469 patients and the full-analysis set comprised 468 patients.
# There was an approximately 3 to 1 ratio of women to men in each treatment group, and almost all patients were Caucasian. The mean age was 43 years (SD 11). At baseline, the mean MADRS total score was approximately 29 for the treatment group, which signifies moderate to severely ill patients.
smiles,measurement,setting,value
"CN(C)CCC[C@@]1(c2ccc(F)cc2)OCc2cc(C#N)ccc21 [escitalopram, (S)-1-[3-(dimethylamino)propyl]-1-(4-fluorophenyl)-1,3-dihydro-5-isobenzofurancarbonitrile]",effect as determined by the MADRS rating scale and Clinical Global Impression (severity as well as improvement),[1],at least same effect as citalopram in a dose of 40 mg
same,speed of response,[2],faster response than citalopram-racemate
same,"therapeutic effect versus placebo, adjusted mean change in MADRS total score",[3],significantly superior therapeutic effect
